The source made the active and inactive calls. The calls are words filed in the database; no cut-off is given here.
How the values were obtained:
[1] = biological target: Replicase polyprotein 1ab (Severe acute respiratory syndrome coronavirus 2) (UniProt P0DTD1); assay: Inhibition of SARS-CoV-2 MPro at 10 uM incubated for 5 mins by FRET assay
J774.1 [2] = assay: Anti-inflammatory activity against mouse J774A.1 macrophage assessed as reduction in LPS-induced LDH release incubated for 1 hr in presence of nigericin by LDH assay; assay type: functional, cell-based; details: J774.1, 1 h
J774.1 [3] = assay: Anti-inflammatory activity against mouse J774A.1 macrophage assessed as reduction in LPS-induced LDH release at 10 uM incubated for 1 hr in presence of nigericin by LDH assay; assay type: functional, cell-based
J774.1 [4] = assay: Anti-inflammatory activity against mouse J774A.1 macrophage assessed as reduction in LPS-induced cleaved casp-1 expression at 0.625 to 2.5 uM incubated for 1 hr in presence of nigericin by Western blot analysis; assay type: functional, cell-based; details: dose 0.625-2.5 µM
J774.1 [5] = assay: Anti-inflammatory activity against mouse J774A.1 macrophage assessed as reduction in LPS-induced IL-1beta maturation at 0.625 to 2.5 uM incubated for 1 hr in presence of nigericin by Western blot analysis; assay type: functional, cell-based; details: dose 0.625-2.5 µM
J774.1 [6] = assay: Anti-inflammatory activity against mouse J774A.1 macrophage assessed as reduction in LPS-induced pyroptosis cells at 0.625 to 2.5 uM incubated for 1 hr in presence of nigericin by PI/Hoechst 33342 staining based inverted fluorescence microscopic analysis; assay type: functional, cell-based; details: dose 0.625-2.5 µM, DDE = dose-dependent effect

SMILES	inhibition [1]	IC50 (J774.1 [2]) [µM]	inhibition (J774.1 [3])	Activity (J774.1 [4])	Activity (J774.1 [5])	Activity (J774.1 [6])
CC(C)=CCc1cc(/C=C2\OC(=O)C(c3ccc(O)cc3O)=C2O)ccc1O	Active	2.4	Active			
CC(C)=CCc1cc(/C=C2\OC(=O)C(c3cc4c(cc3O)OC(C)(C)C(O)C4)=C2O)ccc1O (stereo not given)	Active	4.2	Active			
CC(C)=CCc1cc(C2=C(O)/C(=C/c3ccc(O)c(CC(O)C(C)(C)O)c3)OC2=O)c(O)cc1O (stereo not given)	Active	7.4	Active			
CC(C)=CCc1cc(/C=C2\OC(=O)C(c3cc4c(cc3O)OC(C)(C)CC4)=C2O)ccc1O	Active	0.8	Active			
CC(C)=CCc1cc(C2=C(O)/C(=C/c3ccc4c(c3)C[C@H](C(C)(C)O)O4)OC2=O)c(O)cc1O	Active	4.9	Active			
CC(C)(O)C(O)Cc1cc(/C=C2\OC(=O)C(c3cc4c(cc3O)OC(C)(C)C(O)C4)=C2O)ccc1O (stereo not given)	Active					
CC(C)=CCc1cc(/C=C2\OC(=O)C(c3cc(CCC(C)(C)O)c(O)cc3O)=C2O)ccc1O	Active	3.3	Active			
CC(C)=CCc1cc(C2=C(O)/C(=C/c3ccc(O)c(CCC(C)(C)O)c3)OC2=O)c(O)cc1O	Active	3.1	Active			
CC(C)=CCc1cc(C2=C(O)/C(=C/c3ccc4c(c3)CC(O)C(C)(C)O4)OC2=O)c(O)cc1O (stereo not given)	Active	2.8	Active			
CC(C)(O)C1Cc2cc(/C=C3\OC(=O)C(c4cc5c(cc4O)OC(C)(C)C(O)C5)=C3O)ccc2O1 (stereo not given)	Active	0.7	Active	Active	Active	Dde
CC(C)=CCc1cc(/C=C2\OC(=O)C(c3cc(CC=C(C)C)c(O)cc3O)=C2O)ccc1O	Active	3	Active			
CC1(C)Oc2ccc(/C=C3\OC(=O)C(c4cc5c(cc4O)OC(C)(C)C(O)C5)=C3O)cc2CC1O (stereo not given)	Active					

— ChEMBL document CHEMBL5120789, “Aspulvins A-H, Aspulvinone Analogues with SARS-CoV-2 Mpro Inhibitory and Anti-inflammatory Activities from an Endophytic Cladosporium sp” (J Nat Prod, 2022)
